Active and inactive are the calls of the source. No cut-off for these calls is given here.
How the values were obtained:
[1] = system: Protein cereblon/Androgen receptor (Homo sapiens), P10275+Q96SW2 [UNDEFINED MUTATION]; assay: PROTAC activity at CRBN/Androgen receptor splice variant 7 in human VCaP cells assessed as induction of AR-V7 degradation at 0.01 uM incubated for 24 hrs by Western blot analysis relative to control; format: cell-based
[2] = target: T1, Protein cereblon/Eukaryotic peptide chain release factor GTP-binding subunit ERF3A (Homo sapiens, UniProt Q96SW2+P15170); assay: Molecular glue activity at CRBN/GSPT1 in human 22Rv1 cells assessed as induction of GSPT1 degradation at 0.1 uM incubated for 24 hrs by Western blot analysis relative to control; format: cell-based
T1 sequence (P15170 whole entry, looked up): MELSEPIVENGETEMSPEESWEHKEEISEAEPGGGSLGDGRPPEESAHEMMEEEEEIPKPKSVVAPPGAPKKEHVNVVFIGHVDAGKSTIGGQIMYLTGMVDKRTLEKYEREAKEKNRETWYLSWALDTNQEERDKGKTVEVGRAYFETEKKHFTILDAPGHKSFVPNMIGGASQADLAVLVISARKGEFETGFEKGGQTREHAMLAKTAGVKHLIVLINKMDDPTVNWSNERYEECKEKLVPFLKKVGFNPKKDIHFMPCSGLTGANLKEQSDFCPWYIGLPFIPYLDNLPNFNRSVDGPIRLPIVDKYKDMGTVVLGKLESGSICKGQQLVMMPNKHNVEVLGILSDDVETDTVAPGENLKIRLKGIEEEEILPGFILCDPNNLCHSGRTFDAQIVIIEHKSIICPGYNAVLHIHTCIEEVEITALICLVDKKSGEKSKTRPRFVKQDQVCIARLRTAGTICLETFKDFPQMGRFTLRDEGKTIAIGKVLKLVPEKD
T1 sequence (Q96SW2 whole entry, looked up): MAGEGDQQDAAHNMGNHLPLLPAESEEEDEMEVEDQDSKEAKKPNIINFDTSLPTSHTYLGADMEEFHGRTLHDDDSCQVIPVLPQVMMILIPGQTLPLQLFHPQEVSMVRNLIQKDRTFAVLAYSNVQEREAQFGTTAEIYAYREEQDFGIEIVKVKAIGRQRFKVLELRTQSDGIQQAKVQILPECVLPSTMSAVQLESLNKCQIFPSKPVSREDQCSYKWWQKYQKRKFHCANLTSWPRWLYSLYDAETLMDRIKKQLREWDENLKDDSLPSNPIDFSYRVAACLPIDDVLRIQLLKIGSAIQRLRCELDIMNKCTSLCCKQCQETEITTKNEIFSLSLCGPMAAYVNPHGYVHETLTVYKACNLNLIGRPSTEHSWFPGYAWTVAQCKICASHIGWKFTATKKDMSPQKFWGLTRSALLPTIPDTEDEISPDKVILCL

[3] = target: T2, Protein cereblon/Androgen receptor (Homo sapiens, UniProt P10275+Q96SW2); assay: PROTAC activity at CRBN/AR in human 22Rv1 cells assessed as induction of AR degradation at 20 nM incubated for 1 hrs by Western blot analysis (reference value: 0 %); format: cell-based
Target sequence in this assay (P10275 whole entry, looked up): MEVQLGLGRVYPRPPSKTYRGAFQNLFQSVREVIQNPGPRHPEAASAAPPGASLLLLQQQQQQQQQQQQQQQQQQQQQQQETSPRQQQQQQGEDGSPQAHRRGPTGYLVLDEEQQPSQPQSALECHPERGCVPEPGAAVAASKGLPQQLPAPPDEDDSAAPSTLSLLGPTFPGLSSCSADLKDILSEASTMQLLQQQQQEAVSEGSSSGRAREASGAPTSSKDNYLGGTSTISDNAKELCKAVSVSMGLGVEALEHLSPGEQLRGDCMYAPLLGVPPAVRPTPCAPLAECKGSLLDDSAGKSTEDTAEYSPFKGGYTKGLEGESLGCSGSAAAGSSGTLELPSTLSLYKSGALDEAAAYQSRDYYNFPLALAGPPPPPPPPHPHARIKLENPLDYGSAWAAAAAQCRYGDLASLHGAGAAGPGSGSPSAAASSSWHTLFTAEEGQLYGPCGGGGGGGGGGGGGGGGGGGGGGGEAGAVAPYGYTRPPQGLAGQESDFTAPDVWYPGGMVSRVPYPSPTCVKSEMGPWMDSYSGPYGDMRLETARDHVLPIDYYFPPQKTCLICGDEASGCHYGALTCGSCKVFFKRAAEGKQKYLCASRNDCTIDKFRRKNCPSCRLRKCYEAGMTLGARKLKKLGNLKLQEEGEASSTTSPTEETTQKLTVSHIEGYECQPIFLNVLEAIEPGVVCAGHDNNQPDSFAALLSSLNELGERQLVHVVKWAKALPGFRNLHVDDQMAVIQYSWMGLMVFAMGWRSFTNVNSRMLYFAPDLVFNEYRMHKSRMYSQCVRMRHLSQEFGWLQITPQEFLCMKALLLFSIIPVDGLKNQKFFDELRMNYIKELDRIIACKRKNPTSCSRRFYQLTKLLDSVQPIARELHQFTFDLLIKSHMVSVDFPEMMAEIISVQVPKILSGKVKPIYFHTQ
Target sequence in this assay (Q96SW2 whole entry, looked up): as the sequence (Q96SW2 whole entry, looked up) above

[4] = target: T2, Protein cereblon/Androgen receptor; assay: PROTAC activity at CRBN/AR in human 22Rv1 cells assessed as induction of AR degradation at 20 nM incubated for 2 hrs by Western blot analysis (reference value: 0 %); format: cell-based
Target sequence in this assay (P10275 whole entry, looked up): as the sequence (P10275 whole entry, looked up) above
Target sequence in this assay (Q96SW2 whole entry, looked up): as the sequence (Q96SW2 whole entry, looked up) above

[5] = system: Protein cereblon/Androgen receptor (Homo sapiens), P10275+Q96SW2 [UNDEFINED MUTATION]; assay: PROTAC activity at CRBN/Androgen receptor splice variant 7 in human 22Rv1 cells assessed as induction of AR-V7 degradation at 20 nM incubated for 2 hrs by Western blot analysis (reference value: 0%); format: cell-based
[6] = system: Protein cereblon/Androgen receptor (Homo sapiens), P10275+Q96SW2 [UNDEFINED MUTATION]; assay: PROTAC activity at CRBN/Androgen receptor splice variant 7 in human 22Rv1 cells assessed as induction of AR-V7 degradation at 20 nM incubated for 18 hrs by Western blot analysis (reference value: 0%); format: cell-based
[7] = target: T1, Protein cereblon/Eukaryotic peptide chain release factor GTP-binding subunit ERF3A; assay: Molecular glue activity at CRBN/GSPT1 in human 22Rv1 cells assessed as induction of GSPT1 degradation at 20 nM incubated for 18 hrs by Western blot analysis (reference value: 0 %); format: cell-based
[8] = target: T1, Protein cereblon/Eukaryotic peptide chain release factor GTP-binding subunit ERF3A; assay: Molecular glue activity at CRBN/GSPT1 in human 22Rv1 cells assessed as induction of GSPT1 degradation at 20 nM incubated for 36 hrs by Western blot analysis (reference value: 0 %); format: cell-based
[9] = target: T2, Protein cereblon/Androgen receptor; assay: PROTAC activity at CRBN/AR in human LNCaP cells assessed as induction of AR degradation incubated for 24 hrs by Western blot analysis; format: cell-based
[10] = target: T1, Protein cereblon/Eukaryotic peptide chain release factor GTP-binding subunit ERF3A; assay: Molecular glue activity at CRBN/GSPT1 in human VCaP cells assessed as induction of GSPT1 degradation at 20 nM by Western blot analysis; format: cell-based; details: time 1-36 hrs
[11] = target: T2, Protein cereblon/Androgen receptor; assay: PROTAC activity at CRBN/AR in human 22Rv1 cells assessed as induction of AR degradation at 50 nM preincubated with MLN4924 followed by compound addition and measured after 12 hrs by Western blot analysis; format: cell-based
Target sequence in this assay (P10275 whole entry, looked up): as the sequence (P10275 whole entry, looked up) above
Target sequence in this assay (Q96SW2 whole entry, looked up): as the sequence (Q96SW2 whole entry, looked up) above

[12] = target: T2, Protein cereblon/Androgen receptor; assay: PROTAC activity at CRBN/AR in human VCaP cells assessed as induction of AR degradation at 50 nM preincubated with MG132 followed by compound addition and measured after 12 hrs by Western blot analysis; format: cell-based
Target sequence in this assay (P10275 whole entry, looked up): as the sequence (P10275 whole entry, looked up) above
Target sequence in this assay (Q96SW2 whole entry, looked up): as the sequence (Q96SW2 whole entry, looked up) above

[13] = target: T1, Protein cereblon/Eukaryotic peptide chain release factor GTP-binding subunit ERF3A; assay: Molecular glue activity at CRBN/GSPT1 in human VCaP cells assessed as induction of GSPT1 degradation at 50 nM preincubated with MG132 followed by compound addition and measured after 12 hrs by Western blot analysis; format: cell-based
[14] = target: T1, Protein cereblon/Eukaryotic peptide chain release factor GTP-binding subunit ERF3A; assay: Molecular glue activity at CRBN/GSPT1 in human VCaP cells assessed as induction of GSPT1 degradation at 50 nM preincubated with MLN4924 followed by compound addition and measured after 12 hrs by Western blot analysis; format: cell-based
[15] = target: T1, Protein cereblon/Eukaryotic peptide chain release factor GTP-binding subunit ERF3A; assay: Molecular glue activity at CRBN/GSPT1 in human 22Rv1 cells assessed as induction of GSPT1 degradation at 50 uM preincubated with thalidomide followed by compound addition and measured after 12 hrs by Western blot analysis; format: cell-based
[16] = target: T2, Protein cereblon/Androgen receptor; assay: Binding affinity to CRBN/AR in human 22Rv1 cells assessed as ternary complex formation incubated for 6 hrs by co-immunoprecipitation based Western blot analysis; format: cell-based
Target sequence in this assay (P10275 whole entry, looked up): as the sequence (P10275 whole entry, looked up) above
Target sequence in this assay (Q96SW2 whole entry, looked up): as the sequence (Q96SW2 whole entry, looked up) above

[17] = target: Protein cereblon/Zinc finger protein Helios (Homo sapiens) (UniProt Q96SW2+Q9UKS7); assay: Molecular glue activity at CRBN/IKZF2 in human 22Rv1 cells assessed as induction of IKZF2 degradation at 3 uM incubated for 6 hrs by Western blot analysis; format: cell-based
Chain of Protein cereblon/Zinc finger protein Helios (Homo sapiens) (Q96SW2 whole entry, looked up): as above
Chain of Protein cereblon/Zinc finger protein Helios (Homo sapiens) (Q9UKS7 whole entry, looked up): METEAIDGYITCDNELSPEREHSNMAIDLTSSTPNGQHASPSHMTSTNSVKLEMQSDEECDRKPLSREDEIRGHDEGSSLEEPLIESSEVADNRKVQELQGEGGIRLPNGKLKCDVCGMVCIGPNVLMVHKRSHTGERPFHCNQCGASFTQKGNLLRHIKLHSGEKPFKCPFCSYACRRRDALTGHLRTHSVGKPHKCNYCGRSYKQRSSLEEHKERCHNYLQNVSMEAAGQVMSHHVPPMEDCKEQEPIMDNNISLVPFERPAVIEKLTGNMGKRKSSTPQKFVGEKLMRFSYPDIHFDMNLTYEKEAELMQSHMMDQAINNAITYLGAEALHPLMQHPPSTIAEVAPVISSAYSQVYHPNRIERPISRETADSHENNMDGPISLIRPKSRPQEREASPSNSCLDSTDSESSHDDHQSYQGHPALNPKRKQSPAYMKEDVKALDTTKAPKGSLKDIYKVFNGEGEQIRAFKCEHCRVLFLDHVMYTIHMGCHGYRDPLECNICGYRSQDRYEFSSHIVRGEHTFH

[18] = system: DU-145; assay: Antiproliferative activity against AR-independent human DU-145 cells assessed as cell growth inhibition incubated for 72 hrs by Celltiter-lumi luminescent cell viability assay; format: functional, cell-based; details: DU-145, 72 h
[19] = Selectivity ratio of IC50 for antiproliferative activity against AR-independent human DU-145 cells assessed as cell growth inhibition to IC50 for antiproliferative activity against AR-dependent human 22Rv1 cells assessed as cell growth inhibition; format: functional
[20] = Selectivity ratio of IC50 for antiproliferative activity against AR-independent human DU-145 cells assessed as cell growth inhibition to IC50 for antiproliferative activity against AR-dependent human VCaP cells assessed as cell growth inhibition; format: functional
[21] = system: CWR22R; assay: Upregulation of p53 signaling pathway related gene expression in human 22Rv1 cells at 3 nM incubated for 24 hrs by KEGG enrichment analysis; format: functional, cell-based
[22] = system: CWR22R; assay: Downregulation of CCNB1IP1 gene expression in human 22Rv1 cells at 3 nM incubated for 24 hrs by Volcano plot analysis; format: functional, cell-based
[23] = target: T2, Protein cereblon/Androgen receptor; assay: PROTAC activity at CRBN/AR in human 22Rv1 cells assessed as decrease in FKBP51 protein level incubated for 24 hrs by Western blot analysis; format: cell-based; details: dose 1-10 nM
Target sequence in this assay (P10275 whole entry, looked up): as the sequence (P10275 whole entry, looked up) above
Target sequence in this assay (Q96SW2 whole entry, looked up): as the sequence (Q96SW2 whole entry, looked up) above

[24] = target: T2, Protein cereblon/Androgen receptor; assay: PROTAC activity at CRBN/AR in human LNCaP cells assessed as decrease in TMPRSS2 protein level incubated for 24 hrs by Western blot analysis; format: cell-based; details: dose 1-100 nM
[25] = system: CWR22R; assay: Cell cycle arrest in human 22Rv1 cells assessed as accumulation of cells at G1 phase at 3 nM incubated for 24 hrs by flow cytometric analysis (reference value: 49.7 %); format: functional
[26] = system: LNCaP; assay: Induction of apoptosis in human LNCaP cells assessed as increase in cleaved PARP expression incubated for 24 hrs by Western blot analysis; format: functional, cell-based; details: dose 1-100 nM
[27] = target: T1, Protein cereblon/Eukaryotic peptide chain release factor GTP-binding subunit ERF3A; assay: Molecular glue activity at CRBN/GSPT1 in human Enzalutamide-resistant LNCaP cells assessed as induction of GSPT1 degradation at 1 to 300 nM by Western blot analysis; format: cell-based; details: dose 1-300 nM
[28] = Inhibition of AR W741L mutant (unknown origin) transcriptional activity transfected in HEK293T cells co-transfected with PSA-luciferase reporter and pRL-TK assessed as reduction in PSA-luciferase activity incubated for 24 hrs by luminescence based microplate reader analysis; format: cell-based, Homo sapiens
[29] = target: T2, Protein cereblon/Androgen receptor; assay: In vivo PROTAC activity at CRBN/AR in male NOD SCID mouse model xenografted with human LNCaP cells assessed as reduction in androgen receptor level in tumor at 20 mg/kg, po administered daily for 26 days by Western blot analysis; format: functional, organism-based; details: time 26.0 day

Chain of Protein cereblon/Androgen receptor (Homo sapiens), P10275+Q96SW2 [UNDEFINED MUTATION] (P10275 whole entry, looked up, change not shown, canonical isoform): as the sequence (P10275 whole entry, looked up) above
Chain of Protein cereblon/Androgen receptor (Homo sapiens), P10275+Q96SW2 [UNDEFINED MUTATION] (Q96SW2 whole entry, looked up, change not shown, canonical isoform): as the sequence (Q96SW2 whole entry, looked up) above

Question: Which results are given for `COc1ccc(C(C)(C)c2cc(Cl)c(OCC3CCN(C(=O)CCCCCNc4ccc5c(c4)C(=O)N(C4CCC(=O)NC4=O)C5=O)CC3)c(C#N)c2)cc1` (stereo not given)?
Answer: Activity [1]: 85.1%; Activity [2]: 93.4%; Activity [3]: 49%; Activity [4]: 56.3%; Activity [5]: 21.8%; Activity [6]: 91.4%; Activity [7]: 98.4%; Activity [8]: 98.5%; Activity [9]: Dose-dependent-effect; DC50 [9]: 0.0156 µM; Activity [10]: Time-dependent-effect; Activity [11]: inactive; Activity [12]: inactive; Activity [13]: inactive; Activity [14]: inactive; Activity [15]: inactive; Activity [16]: Active; Activity [17]: Moderate_effect; IC50 [18]: 0.882 µM; Ratio IC50 [19]: 802; Ratio IC50 [20]: 588; Activity [21]: Active; Activity [22]: Active; Activity [23]: Dose-dependent-effect; Activity [24]: Dose-dependent-effect; Activity [25]: 55.6%; Activity [26]: Dose-dependent-effect; Activity [27]: Active; IC50 [28]: 0.0623 µM; Activity [29]: Active

— ChEMBL document CHEMBL6177998, “Rational Design of Dual Degraders by Incorporating Molecular Glue Structural Features into PROTAC Degraders” (J Med Chem, 2025)
